# Source: patent publication US5431922A (Bristol-Myers Squibb Company, priority 1993, dated 1995)
# Experiments:
# [1] = system: rat; test: Rat forced swim test (antidepressant screening); type: in vivo
# [2] = system: patients undergoing diazepam-withdrawal; conditions: human, in vivo; cited from earlier work
# [3] = in vivo, cited from earlier work
# [4] = pharmacologic testing; cited from earlier work
# [5] = system: diazepam-withdrawn animals; conditions: cited from earlier work
# [6] = Johansson et al. 1971; cited from earlier work
structure (smiles),measurement,setting,value
"O=C1CC2(CCCC2)CC(=O)N1CCCCN1CCN(c2ncccn2)CC1 [Buspirone, 8-[4-[4-(2-pyrimidinyl)1-piperazinyl]butyl]-8-azaspiro(4,5)-decane-7,9-dione]",activity in rat forced swim test,[1]; given intracerebrally,active
same,activity in rat forced swim test,[1]; given systemically,inactive
same,treatment of patients undergoing diazepam-withdrawal,[2],failed to adequately treat patients undergoing diazepam-withdrawal
same,biological half-life,[3]; human,2-11 hours
"c1cnc(N2CCNCC2)nc1 [Example 1-PP, 1-(2-pyrimidinyl)piperazine]",blockade of activity of intracerebral buspirone in forced swim test,[1]; systemic administration of 1-PP,blocked
same,anxiolytic potency relative to buspirone,[4],20-25%
same,effect on social interaction,[5]; diazepam-naive subjects,had not shown any effect
same,effect in social interaction paradigm,[5]; diazepam-withdrawn animals,anxiogenic effect
same,elimination (in words),[3],much slower elimination
C=CCc1ccccc1OCC(O)CNC(C)C (stereo not shown) [alprenolol],metabolism in controlled/extended release form vs conventional tablets (in words),[6],more complete when it was administered in a controlled/extended release form than in conventional tablets
